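Results reflect a 48-hour exposure of cells in 96-well plates to compound at five concentrations. GI50 marks 50% less growth. TGI marks complete inhibition of growth.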
Assays:
Experiment in all cases: NCI anticancer screen, dose series, 48 h
IGROV1 ovarian = tested on: IGROV1 ovarian
RXF 393 renal = tested on: RXF 393 renal
KM12 colon = tested on: KM12 colon
SNB-75 CNS = tested on: SNB-75 CNS
OVCAR-3 ovarian = tested on: OVCAR-3 ovarian
SNB-19 CNS = tested on: SNB-19 CNS
COLO 205 colon = tested on: COLO 205 colon
EKVX NSCLC = tested on: EKVX NSCLC
MALME-3M melanoma = tested on: MALME-3M melanoma
SK-MEL-5 melanoma = tested on: SK-MEL-5 melanoma
UACC-62 melanoma = tested on: UACC-62 melanoma
HOP-62 NSCLC = tested on: HOP-62 NSCLC
TK-10 renal = tested on: TK-10 renal
SW-620 colon = tested on: SW-620 colon
HL-60(TB) leukemia = tested on: HL-60(TB) leukemia
SK-MEL-2 melanoma = tested on: SK-MEL-2 melanoma
A549 NSCLC = tested on: A549 NSCLC
NCI-H23 lung = tested on: NCI-H23 lung
OVCAR-4 ovarian = tested on: OVCAR-4 ovarian
SK-MEL-28 melanoma = tested on: SK-MEL-28 melanoma
SF-268 CNS = tested on: SF-268 CNS
SK-OV-3 ovarian = tested on: SK-OV-3 ovarian
MDA-MB-231 breast = tested on: MDA-MB-231 breast
U251 CNS = tested on: U251 CNS
OVCAR-5 ovarian = tested on: OVCAR-5 ovarian
MCF7 breast = tested on: MCF7 breast
HT29 colon = tested on: HT29 colon
MDA-MB-435 = tested on: MDA-MB-435
CAKI-1 renal = tested on: CAKI-1 renal
786-0 renal = tested on: 786-0 renal
DU-145 prostate = tested on: DU-145 prostate
BT-549 breast = tested on: BT-549 breast
HCT-15 colon = tested on: HCT-15 colon
M14 melanoma = tested on: M14 melanoma
K-562 leukemia = tested on: K-562 leukemia
SF-539 CNS = tested on: SF-539 CNS
NCI-H460 lung = tested on: NCI-H460 lung
HCT-116 colon = tested on: HCT-116 colon
NCI-H522 lung = tested on: NCI-H522 lung
HCC-2998 colon = tested on: HCC-2998 colon
ACHN renal = tested on: ACHN renal
OVCAR-8 ovarian = tested on: OVCAR-8 ovarian
HS 578T breast = tested on: HS 578T breast
A498 renal = tested on: A498 renal
T-47D breast = tested on: T-47D breast
SF-295 CNS = tested on: SF-295 CNS
LOX IMVI melanoma = tested on: LOX IMVI melanoma
SN12C renal = tested on: SN12C renal

CC1=C([Se]CC(OC(=O)[C@@H](CSSC(C)(C)C)NC(=O)OC(C)(C)C)C(=O)NC(C)(C)C)C(=O)c2ccccc2C1=O (stereo partly specified)
GI50 (IGROV1 ovarian): 1150 nM
TGI (IGROV1 ovarian): 2360 nM
GI50 (RXF 393 renal): 1500 nM
TGI (RXF 393 renal): 2820 nM
GI50 (KM12 colon): 1260 nM
TGI (KM12 colon): 2510 nM
GI50 (SNB-75 CNS): 1300 nM
TGI (SNB-75 CNS): 2590 nM
GI50 (OVCAR-3 ovarian): 1890 nM
TGI (OVCAR-3 ovarian): 3300 nM
GI50 (SNB-19 CNS): 451 nM
TGI (SNB-19 CNS): 1690 nM
GI50 (COLO 205 colon): 1670 nM
TGI (COLO 205 colon): 3150 nM
GI50 (EKVX NSCLC): 1510 nM
TGI (EKVX NSCLC): 3110 nM
GI50 (MALME-3M melanoma): 1180 nM
TGI (MALME-3M melanoma): 2410 nM
GI50 (SK-MEL-5 melanoma): 1590 nM
TGI (SK-MEL-5 melanoma): 2940 nM
GI50 (UACC-62 melanoma): 1510 nM
TGI (UACC-62 melanoma): 2840 nM
GI50 (HOP-62 NSCLC): 762 nM
TGI (HOP-62 NSCLC): 2810 nM
GI50 (TK-10 renal): 1600 nM
TGI (TK-10 renal): 2950 nM
GI50 (SW-620 colon): 1430 nM
TGI (SW-620 colon): 2730 nM
GI50 (HL-60(TB) leukemia): 255 nM
TGI (HL-60(TB) leukemia): 1230 nM
GI50 (SK-MEL-2 melanoma): 1470 nM
TGI (SK-MEL-2 melanoma): 2880 nM
GI50 (A549 NSCLC): 1280 nM
TGI (A549 NSCLC): 2660 nM
GI50 (NCI-H23 lung): 1820 nM
TGI (NCI-H23 lung): 4610 nM
GI50 (OVCAR-4 ovarian): 1490 nM
TGI (OVCAR-4 ovarian): 2870 nM
GI50 (SK-MEL-28 melanoma): 1620 nM
TGI (SK-MEL-28 melanoma): 2980 nM
GI50 (SF-268 CNS): 1960 nM
TGI (SF-268 CNS): 3390 nM
GI50 (SK-OV-3 ovarian): 1360 nM
TGI (SK-OV-3 ovarian): 2640 nM
GI50 (MDA-MB-231 breast): 1450 nM
TGI (MDA-MB-231 breast): 2760 nM
GI50 (U251 CNS): 675 nM
TGI (U251 CNS): 1940 nM
GI50 (OVCAR-5 ovarian): 1730 nM
TGI (OVCAR-5 ovarian): 3240 nM
GI50 (MCF7 breast): 1460 nM
TGI (MCF7 breast): 3120 nM
GI50 (HT29 colon): 2300 nM
TGI (HT29 colon): 6300 nM
GI50 (MDA-MB-435): 1640 nM
TGI (MDA-MB-435): 3000 nM
GI50 (CAKI-1 renal): 1660 nM
TGI (CAKI-1 renal): 3020 nM
GI50 (786-0 renal): 1650 nM
TGI (786-0 renal): 3010 nM
GI50 (DU-145 prostate): 1810 nM
TGI (DU-145 prostate): 3220 nM
GI50 (BT-549 breast): 1240 nM
TGI (BT-549 breast): 2500 nM
GI50 (HCT-15 colon): 1660 nM
TGI (HCT-15 colon): 3120 nM
GI50 (M14 melanoma): 1260 nM
TGI (M14 melanoma): 2580 nM
GI50 (K-562 leukemia): 1280 nM
TGI (K-562 leukemia): 2620 nM
GI50 (SF-539 CNS): 1430 nM
TGI (SF-539 CNS): 2740 nM
GI50 (NCI-H460 lung): 364 nM
TGI (NCI-H460 lung): 1320 nM
GI50 (HCT-116 colon): 490 nM
TGI (HCT-116 colon): 1700 nM
GI50 (NCI-H522 lung): 1550 nM
TGI (NCI-H522 lung): 2990 nM
GI50 (HCC-2998 colon): 1540 nM
TGI (HCC-2998 colon): 3100 nM
GI50 (ACHN renal): 1510 nM
TGI (ACHN renal): 2840 nM
GI50 (OVCAR-8 ovarian): 1360 nM
TGI (OVCAR-8 ovarian): 2730 nM
GI50 (HS 578T breast): 1310 nM
TGI (HS 578T breast): 2690 nM
GI50 (A498 renal): 1420 nM
TGI (A498 renal): 3830 nM
GI50 (T-47D breast): 1440 nM
TGI (T-47D breast): 3480 nM
GI50 (SF-295 CNS): 1220 nM
TGI (SF-295 CNS): 3190 nM
GI50 (LOX IMVI melanoma): 1470 nM
TGI (LOX IMVI melanoma): 2790 nM
GI50 (SN12C renal): 1370 nM
TGI (SN12C renal): 2740 nM

From PubChem BioAssay (NCI)
